Consider 16 compounds from ChEMBL document CHEMBL3399984, “Identification of Bacillus anthracis PurE inhibitors with antimicrobial activity” (Bioorg Med Chem, 2015).

Assay [1] concerns Bacillus anthracis. In words: Inhibition of recombinant Bacillus anthracis PurE assessed as change in melting temperature at 100 uM after 10 to 30 mins by high-throughput thermal shift screening.
Assay [2] has as its system Bacillus anthracis. In words: Inhibition of recombinant Bacillus anthracis PurE assessed as inhibition of 4-carboxy-amino-imidazole ribonucleotide to N5-carboxy-amino-imidazole ribonucleotide conversion preincubated for 1.5 mins at 10 uM by mass spectrometry analysis.
For assay [3], the system named is Francisella tularensis. Put plainly: Antimicrobial activity against Francisella tularensis BEI/ATCC UTAH 112 measured after overnight incubation. The assay is classed as functional.
The subject of assay [4] is Bacillus anthracis. In words: Antimicrobial activity against Bacillus anthracis deltaANR measured after overnight incubation. The assay is classed as functional.
The test system of assay [5] is Yersinia pestis. Put plainly: Antimicrobial activity against Yersinia pestis BEI/ATCC A1122 measured after overnight incubation. The assay is classed as functional.
The test system of assay [6] is Staphylococcus aureus. Put plainly: Antimicrobial activity against methicillin-resistant Staphylococcus aureus ATCC 43300 measured after overnight incubation. The assay is classed as functional.
The subject of assay [7] is Staphylococcus aureus. In words: Antimicrobial activity against methicillin-sensitive Staphylococcus aureus ATCC 29213 measured after overnight incubation. The assay is classed as functional.
For assay [8], the system named is Escherichia coli. Put plainly: Antimicrobial activity against TolC-deficient Escherichia coli BW25113 measured after overnight incubation. The assay is classed as functional.
Assay [9] concerns Bacillus anthracis. Put plainly: Bactericidal activity against Bacillus anthracis deltaANR measured after 72 hrs. The assay is classed as functional.
In assay [10] the test system is Bacillus anthracis. In words: Ratio of MBC to MIC for against Bacillus anthracis deltaANR measured after 72 hrs. The assay is classed as functional.
Assay [11] in a line: Ratio of MIC for Francisella tularensis BEI/ATCC UTAH 112 to MIC for Bacillus anthracis deltaANR. The assay is classed as functional.
Assay [12] in a line: Ratio of MIC for Yersinia pestis BEI/ATCC A1122 to MIC for Bacillus anthracis deltaANR. The assay is classed as functional.
The nature of assay [13]: Binding affinity to Gallus gallus PurE.
Assay [14] is described as follows: Binding affinity to Escherichia coli PurE.

As a reminder, the ΔTm is the change in melting temperature against a reference sample. Usually inhibition stands for how much of the control response was suppressed. In general, MIC refers to the least concentration at which growth counts as inhibited. Read a low MIC as inhibition by little substance. Usually MBC stands for the lowest tested concentration that kills the bacteria rather than only halting them. Lower therefore signals greater bactericidal potency. The Ki is a dissociation constant, usually derived from enzyme kinetics or from competition with a known ligand. A higher Ki goes with weaker binding.

In brackets after ≈: the same amount, converted by molar mass.

As for `CCCCC(CC)CNc1nc2c(c(=O)[nH]c(=O)n2C)n1CC(O)COc1ccc(C)c(C)c1` (stereo unspecified), the thermal shift (ΔTm) in assay [1] was 1.8 °C. Moreover, the inhibition in assay [2] is 7%. Further, the MIC in assay [3] is over 12.5 µg/mL.
As for `O=C(NCc1c(-c2ccc(Cl)cc2)nc2n1CCS2)c1cccs1`, the ΔTm in assay [1] stood at 4.7 °C. Further, the inhibition in assay [2] came to 11%. In addition, the MIC in [4], in assay [3] and in [5] was over 12.5 µg/mL throughout.
`CC(=O)NC[C@H]1CN(c2ccc(N3CCOCC3)c(F)c2)C(=O)O1` [LINEZOLID]: the MIC in [3] was 32 µg/mL (≈ 94.9 µM).
As to `COc1ccc(Cl)c(C(=O)Nc2nnc(-c3ccc(Br)cc3)o2)c1`, the ΔTm in assay [1] is 1.4 °C. Further, the inhibition in assay [2] amounted to 15%. The minimal inhibitory concentration (MIC) in assay [4] came to 0.78 µg/mL (≈ 1.91 µM); in assay [3], 1.2 µg/mL (≈ 2.94 µM); in assay [6] it was 3.13 µg/mL (≈ 7.66 µM); in assay [5] it was 3.1 µg/mL (≈ 7.59 µM); in [7], 1.56 µg/mL (≈ 3.82 µM); in assay [8], 0.39 µg/mL (≈ 0.954 µM). For the same compound, in assay [9], the MBC was over 12.5 µg/mL. The MBC/MIC ratio in [10] is over 4 µg/mL. The Ratio in assay [11] and in assay [12] was 10 in each case.
`Cc1ccc(C)c(-c2nnc(NC(=O)c3cc(Cl)sc3Cl)o2)c1`: in [1], the ΔTm amounted to 1.1 °C. In addition, in assay [2], the inhibition was found to be 20%. The MIC stood at 0.05 µg/mL (≈ 0.136 µM) in [4]; 1.6 µg/mL (≈ 4.34 µM) in assay [3]; 1.95 µg/mL (≈ 5.3 µM) in assay [6]; 3.1 µg/mL (≈ 8.42 µM) in assay [5]; 0.78 µg/mL (≈ 2.12 µM) in [7]; 0.07 µg/mL (≈ 0.19 µM) in [8]. The MBC in [9] is over 12.5 µg/mL. The MBC/MIC ratio in [10] is over 4 µg/mL. In addition, the Ratio in assay [11] and in [12] was 10 each time.
On to `COc1cccc(C(=O)Nc2ccc(-c3cn4ccsc4n3)cc2)c1OC`, for which the ΔTm in [1] came out at 3 °C. In addition, in assay [2], the inhibition is 17%. Besides, the MIC in [4], in [3] and in assay [5] was over 12.5 µg/mL throughout.
Regarding `Cc1ccc(C)c(-c2nnc(NC(=O)c3cccc(Cl)c3)o2)c1`, in assay [1], the ΔTm came out at 2.4 °C. Moreover, in assay [2], the inhibition stood at 19%. The MIC was 0.1 µg/mL (≈ 0.305 µM) in assay [4]; 6.3 µg/mL (≈ 19.2 µM) in assay [3]; over 12.5 µg/mL in assay [6]; over 12.5 µg/mL in [5]; 0.2 µg/mL (≈ 0.61 µM) in assay [7]; 0.02 µg/mL (≈ 0.061 µM) in assay [8]. For the same compound, the minimal bactericidal concentration (MBC) in [9] is over 12.5 µg/mL. Further, the MBC/MIC ratio in [10] is over 4 µg/mL. The Ratio in [11] and in [12] was 10 in each case.
On to `Cc1sc2ccsc2[n+]1CC(=O)O.[Br-]`, for which the ΔTm in [1] came out at 4.4 °C. Further, the inhibition in [2] came to 17%. In addition, the MIC in assay [4], in assay [3] and in assay [5] was over 12.5 µg/mL in each case.
Take `O=C(Oc1ccccc1)Oc1ccc(N(C(=O)Oc2ccccc2)S(=O)(=O)c2ccc3ccccc3c2)cc1Br`: the ΔTm in assay [1] amounted to 5.2 °C. For the same compound, in assay [2], the inhibition amounted to 28%. The compound further had an MIC in assay [4] of over 12.5 µg/mL.
Turning to `COc1cccc(-c2nc(Cn3nnc(C(=O)NCc4ccc(Cl)cc4)c3N)c(C)o2)c1OC`, the ΔTm in assay [1] came to 1.2 °C. In addition, the inhibition in [2] came out at 6%. Also, the MIC in assay [4] and in assay [3] was over 12.5 µg/mL in each case.
`NS(=O)(=O)c1ccc(NC(=O)CSc2nnc(-c3ccccc3)o2)cc1`: the ΔTm in assay [1] stood at 1.5 °C. Further, the inhibition in [2] came to 12%. This compound had an MIC in assay [4] of over 12.5 µg/mL.
`Nc1c([N+](=O)[O-])ncn1[C@@H]1O[C@H](COP(=O)(O)O)[C@@H](O)[C@H]1O`: the ΔTm in assay [1] came to 5.6 °C. For the same compound, the inhibition in assay [2] was 24%. Moreover, the results for the inhibitory constant (Ki) in assay [13] and in assay [14] were 0.34 nM and 500 nM, respectively.
With `Cc1c(C(=O)Nc2nnc(-c3cc(Cl)ccc3Cl)o2)c(-c2ccccc2)nc2ccccc12`, the shift in melting temperature (ΔTm) in assay [1] was found to be 7.9 °C. For the same compound, the inhibition in assay [2] came out at 19%. For the same compound, the minimal inhibitory concentration (MIC) in assay [4] was 0.1 µg/mL (≈ 0.21 µM); in assay [3] it was 3.1 µg/mL (≈ 6.52 µM); in [6], 6.25 µg/mL (≈ 13.1 µM); in assay [5] it was over 12.5 µg/mL; in assay [7], over 12.5 µg/mL; in assay [8], 0.39 µg/mL (≈ 0.82 µM). This compound also registered a minimum bactericidal concentration (MBC) in assay [9] of over 12.5 µg/mL. For the same compound, the MBC/MIC ratio in [10] is over 4 µg/mL. Besides, the Ratio in assay [11] and in [12] was 10 in each case.
In the case of `O=C(O)c1cn(C2CC2)c2cc(N3CCNCC3)c(F)cc2c1=O` [CIPROFLOXACIN], the minimum inhibitory concentration (MIC) in [4] was found to be 0.11 µg/mL (≈ 0.332 µM); in assay [3], 0.03 µg/mL (≈ 0.0905 µM); in assay [6] it was 0.34 µg/mL (≈ 1.03 µM); in assay [5], 0.04 µg/mL (≈ 0.121 µM); in assay [7], 0.35 µg/mL (≈ 1.06 µM).
Take `O=C(Nc1cccc(C(F)(F)F)c1)N1CCN(c2ccc3nncn3n2)CC1`: the shift in melting temperature (ΔTm) in [1] came out at 3.1 °C. Also, the inhibition in assay [2] amounted to 14%. For the same compound, the MIC in assay [4], in assay [3] and in [5] was over 12.5 µg/mL throughout.
For `O=C(Cc1ccc(NC(=O)c2ccc(F)cc2Cl)cc1)NCc1cccs1`, in assay [1], the ΔTm came out at 1.8 °C. Moreover, the inhibition in [2] came out at 20%. In addition, the MIC in [4], in [3] and in [5] was over 12.5 µg/mL throughout.
